Measurements from patent US20260224547A1, “COMPOSITIONS COMPRISING ANATABINE AND USES THEREOF” (Philip Morris Products S.A., priority 2021, published 2026).

Test system: HEK-293, SH-SY5Y, primary human keratinocytes, THP-1 differentiated with PMA
Assay: Transcriptomics (microarray) after anatabine treatment of 4 cell systems
Type: cell-based
Procedure: To investigate the signalling pathways triggered by anatabine, 4 cell systems (HEK-293, SH-SY5Y, primary human keratinocytes, THP-1 differentiated with PMA) were treated with 4 concentrations of anatabine (100, 200, 300, 400 μM) for 6 hours, after which transcriptomics measurements were performed.
HEK-293 is a human embryonic kidney cell line devoid of nicotinic receptors. It can be relatively easily transfected and therefore used as a tool to express various subtypes of nicotinic receptors or reporter genes such as NRF2-driven luciferase, which were also used in this study. HEK-293 were seeded in a cell culture medium consisting of EMEM, 10% FBS, 1% NEAA, 1% Sodium Pyruvate and 1% PenStrep. 60,000 cells were seeded per well of a 96-well plate.
SH-SY5Y is a human bone marrow neuroblastoma cell line that has been used by researchers to investigate the potential anti-inflammatory effect of anatabine. SH-SY5Y were seeded in a cell culture medium consisting of 50% EMEM and 50% Ham's F12 nutrient and including 10% FBS, 1% PenStrep and 1% L-glutamine. 15,000 cells were seeded per well of a 96-well plate.
Primary human keratinocytes have been included as a relevant cell system for skin. The batch of keratinocytes was selected in order to have healthy, non-smoker, 20-60 years old, Caucasian donors. The keratinocytes were seeded in a cell culture medium consisting of KGM-Gold Keratinocyte Growth Medium. 17,500 cells were seeded per well of a 96-well plate.
The human leukaemia-derived monocytic cell line THP-1, is the most widely used in vitro model for primary human macrophage investigations. THP-1 cells were seeded in a cell culture medium consisting of RPMI, 10% FBS and 1% PenStrep and in the presence of 40 ng/ml phorbol 12-myristate 13-acetate (PMA). 100,000 cells were seeded per well of a 96-well plate, having a total volume of […] per well. 48 hours later the medium was changed to the same culture medium but without PMA, and the culture was left to rest for 24 h before treatment.
All four cell systems were seeded in 96 well plates at a total volume of 190 μl per well to allow for a 20× compound stimulation with a volume of 10 μL. 24 hours after seeding—or in the case of THP-1, 24 h after changing to non-PMA medium—four cell systems were stimulated with anatabine (prepared at 20× the corresponding target concentration) to obtain a final molar concentration of 100, 200, 300, 400 μM anatabine.
In order to generate the transcriptomics data, the four cell systems were exposed to various concentrations of anatabine (100, 200, 300, 400 μM) for 6 hours. The transcriptome of the cells was analysed by a microarray-based analysis.
The cells were lysed using RLT BUFFER (Qiagen Hilden, Germany) for all cell types except the keratinocytes which were lysed with QIAZOL LYSIS REAGENT (Qiagen). RNA isolation was performed with RNEASY MICRO KIT (Qiagen). RNA quantification was assessed with a NANODROP 1000 (ThermoFisher Waltham, MA, USA) and quality of the total RNA was verified acquiring a profile with a 2100 BIOANALYZER (Agilent Technologies, Santa Clara, CA, USA), requiring an RIN number greater than 6.0. 50 ng of total RNA were processed as described in the TECAN/NUGEN OVATION RNA AMPLIFICATION SYSTEM V2 (Tecan Mannedorf, Switzerland). Human Genome U133 Plus 2.0 array were used for hybridization on a THERMOFISHER OVEN 645, washed on THERMOFISHER GENECHIP™ FLUIDICS STATIONS 450DX (protocol FS450-0004) and scanned on a THERMOFISHER GENECHIP™ SCANNER 3000 7G.
Quality control check of all chips was done with the BIOCONDUCTOR affyPLM R package version 1.64. Following quality control procedures, differential gene expression analysis was performed using the BIOCONDUCTOR LIMMA R package version 3.44.3. Pairwise comparisons at the gene level, called systems response profiles (SRP), were computed by comparing each concentration-treatment with its respective vehicle control. […]

C1=CCC(c2cccnc2)NC1 (racemic) [anatabine, 1,2,3,6-Tetrahydro-2,3′-bipyridine]
Fold Change (ATF3 gene, KEAT, anatabine 100 μM): 0.2106
Fold Change (ATF3 gene, KEAT, anatabine 200 μM): 0.3169
Fold Change (ATF3 gene, KEAT, anatabine 300 μM): 1.893
Fold Change (ATF3 gene, KEAT, anatabine 400 μM): 1.185
Fold Change (ATF3 gene, SHSY5Y, anatabine 100 μM): 0.04701
Fold Change (ATF3 gene, SHSY5Y, anatabine 200 μM): 0.3038
Fold Change (ATF3 gene, SHSY5Y, anatabine 300 μM): 0.6207
Fold Change (ATF3 gene, SHSY5Y, anatabine 400 μM): 1.206
Fold Change (ATF3 gene, THP1, anatabine 100 μM): −0.02648
Fold Change (EEF2K gene, THP1, anatabine 300 μM): −0.3419
Fold Change (EEF2K gene, THP1, anatabine 400 μM): −0.7245
Fold Change (EID3 gene, HEK293, anatabine 100 μM): 0.1833
Fold Change (EID3 gene, HEK293, anatabine 200 μM): 0.5345
Fold Change (EID3 gene, HEK293, anatabine 300 μM): 0.9247
Fold Change (EID3 gene, HEK293, anatabine 400 μM): 0.9528
Fold Change (EID3 gene, KEAT, anatabine 100 μM): 1.694
Fold Change (EID3 gene, KEAT, anatabine 200 μM): 1.995
Fold Change (EID3 gene, KEAT, anatabine 300 μM): 3.641
Fold Change (EID3 gene, KEAT, anatabine 400 μM): 3.12
Fold Change (EID3 gene, SHSY5Y, anatabine 100 μM): 0.2913
Fold Change (EID3 gene, SHSY5Y, anatabine 200 μM): 0.3156
Fold Change (EID3 gene, SHSY5Y, anatabine 300 μM): 0.6868
Fold Change (EID3 gene, SHSY5Y, anatabine 400 μM): 1.05
Fold Change (EID3 gene, THP1, anatabine 100 μM): 0.1121
Fold Change (EID3 gene, THP1, anatabine 200 μM): 0.4679
Fold Change (EID3 gene, THP1, anatabine 300 μM): 0.5698
Fold Change (EID3 gene, THP1, anatabine 400 μM): 1.615
Fold Change (FAM53C gene, HEK293, anatabine 100 μM): 0.3792
Fold Change (FAM53C gene, HEK293, anatabine 200 μM): 0.423
Fold Change (FAM53C gene, HEK293, anatabine 300 μM): 0.6969
Fold Change (FAM53C gene, HEK293, anatabine 400 μM): 0.7367
Fold Change (FAM53C gene, KEAT, anatabine 100 μM): 0.1269
Fold Change (FAM53C gene, KEAT, anatabine 200 μM): 0.2194
Fold Change (FAM53C gene, KEAT, anatabine 300 μM): 1.067
Fold Change (FAM53C gene, KEAT, anatabine 400 μM): 0.6853
Fold Change (FAM53C gene, SHSY5Y, anatabine 100 μM): 0.1212
Fold Change (FAM53C gene, SHSY5Y, anatabine 200 μM): 0.4283
Fold Change (FAM53C gene, SHSY5Y, anatabine 300 μM): 0.5427
Fold Change (FAM53C gene, SHSY5Y, anatabine 400 μM): 0.873
Fold Change (FAM53C gene, THP1, anatabine 100 μM): 0.144
Fold Change (FAM53C gene, THP1, anatabine 200 μM): 0.2515
Fold Change (FAM53C gene, THP1, anatabine 300 μM): 0.6296
Fold Change (FAM53C gene, THP1, anatabine 400 μM): 0.8729
Fold Change (FBXO30 gene, HEK293, anatabine 100 μM): 0.001539
Fold Change (FBXO30 gene, HEK293, anatabine 200 μM): 0.2872
Fold Change (FBXO30 gene, HEK293, anatabine 300 μM): 0.3586
Fold Change (FBXO30 gene, HEK293, anatabine 400 μM): 0.5949
Fold Change (FBXO30 gene, KEAT, anatabine 100 μM): 0.619
Fold Change (FBXO30 gene, KEAT, anatabine 200 μM): 0.8807
Fold Change (FBXO30 gene, KEAT, anatabine 300 μM): 1.832
Fold Change (FBXO30 gene, KEAT, anatabine 400 μM): 1.526
Fold Change (FBXO30 gene, SHSY5Y, anatabine 100 μM): −0.5195
Fold Change (FBXO30 gene, SHSY5Y, anatabine 200 μM): 0.3153
Fold Change (FBXO30 gene, SHSY5Y, anatabine 300 μM): 0.5475
Fold Change (FBXO30 gene, SHSY5Y, anatabine 400 μM): 0.9269
Fold Change (FBXO30 gene, THP1, anatabine 100 μM): 0.002856
Fold Change (FBXO30 gene, THP1, anatabine 200 μM): 0.427
Fold Change (FBXO30 gene, THP1, anatabine 300 μM): 0.6595
Fold Change (FBXO30 gene, THP1, anatabine 400 μM): 1.224
Fold Change (G0S2 gene, HEK293, anatabine 100 μM): −0.159
Fold Change (G0S2 gene, HEK293, anatabine 200 μM): −0.1114
Fold Change (G0S2 gene, HEK293, anatabine 300 μM): −0.6854
Fold Change (G0S2 gene, HEK293, anatabine 400 μM): −0.7292
Fold Change (G0S2 gene, KEAT, anatabine 100 μM): −0.3516
Fold Change (G0S2 gene, KEAT, anatabine 200 μM): −0.5508
Fold Change (G0S2 gene, KEAT, anatabine 300 μM): −1.361
Fold Change (G0S2 gene, KEAT, anatabine 400 μM): −1.016
Fold Change (G0S2 gene, SHSY5Y, anatabine 100 μM): −0.0648
